Measured values: patent publication US8575135B2 (Gilead Sciences, Inc., priority 2011, dated 2013)
Where two headings read alike, the source gives them in different places.

Experiments:
Assay in all cases: microbe, parasite or virus in culture
[1] = system: stable HCV 1a RLuc replicon cells (genotype 1a H77 replicon); type: cell-based; settings: Hepatitis C virus
[2] = system: stable HCV 1b RLuc replicon cells (genotype 1b Con1 replicon); type: cell-based
[3] = system: stable HCV 2a JFH-1 Rluc replicon cells (L31 present in NS5A); type: cell-based
[4] = system: NS5A chimeric genotype 1b Con1 replicon with genotype 3a S52 strain NS5A gene; type: cell-based, HCV
Procedure, shortened: (§1)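 Con1-based 3a and 4a chimeras carried a Pi-RLuc reporter and were transiently transfected into Huh-Lunet cells; the JFH-1-based 2b chimera (RLuc-Neo) was used transiently or as stable replicon cells.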

[5] = system: NS5A chimeric genotype 2a JFH-1 replicon with genotype 2a J6 strain NS5A gene (M31 present); type: cell-based, HCV
[6] = system: NS5A chimeric genotype 2a JFH-1 replicon with genotype 2b MD2b-1 strain NS5A gene (M31 present); type: cell-based, HCV
Procedure, shortened: as §1

[7] = system: NS5A chimeric genotype 1b Con1 replicon with genotype 4a ED43 strain NS5A gene; type: cell-based, HCV
[8] = system: 1a Pi-Rluc replicon with Q30R in genotype 1a NS5A; type: cell-based, HCV
Procedure, shortened: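 Q30R introduced by site-directed mutagenesis into genotype 1a Pi-RLuc replicon; RNA transiently transfected into Huh-7-derived cured-51 cells.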

[9] = Hepatitis C virus, read-out: 1b (nM)
[10] = Hepatitis C virus, read-out: 2a JFH
[11] = Hepatitis C virus, read-out: 2a JFH (nM)
[12] = Hepatitis C virus, read-out: 3a
[13] = Hepatitis C virus, read-out: 3a (nM)
[14] = Hepatitis C virus, read-out: 2a J6
[15] = Hepatitis C virus, read-out: 2a J6 (s) (nM)
[16] = Hepatitis C virus, read-out: 2b
[17] = Hepatitis C virus, read-out: 2b (s) (nM)
[18] = Hepatitis C virus, read-out: 4a
[19] = Hepatitis C virus, read-out: 4a (s) (nM)
[20] = Hepatitis C virus, read-out: 4a (t) (nM)
[21] = Hepatitis C virus, read-out: 2a Jb (t) (nM)
[22] = Hepatitis C virus, read-out: 2b (t) (nM)
[23] = Hepatitis C virus, read-out: 1a Q30R
[24] = Hepatitis C virus, read-out: 1a Q30R (nM)

Compound	EC50 ([1]; read-out: 1a) [nM]	EC50 ([1]; read-out: 1a (nM)) [nM]	EC50 [2, 9] [nM]	EC50 [3, 10] [nM]	EC50 [3, 11] [nM]	EC50 [4, 12] [nM]	EC50 [4, 13] [nM]	EC50 [5, 14] [nM]	EC50 [5, 15] [nM]	EC50 [6, 16] [nM]	EC50 [6, 17] [nM]	EC50 [7, 18] [nM]	EC50 [7, 19] [nM]	EC50 [7, 20] [nM]	EC50 [5, 21] [nM]	EC50 [6, 22] [nM]	EC50 [8, 23] [nM]	EC50 [8, 24] [nM]	further results
COC(=O)N[C@H](C(=O)N1CCC[C@H]1c1ncc(-c2ccc3c(c2)COc2cc4c(ccc5nc([C@@H]6CCCN6C(=O)[C@H](NC(=O)C6CC6)c6ccccc6)[nH]c54)cc2-3)[nH]1)C(C)C [Compound 516]	< 1	0.015	0.024	< 1	0.009	< 1	0.005	< 1	0.043	< 1	0.013	< 1	0.025	0.01	–	–	–	–	–
COC[C@H]1C[C@@H](c2nc3ccc4cc5c(cc4c3[nH]2)OCc2cc(-c3cnc([C@@H]4CCCN4C(=O)[C@@H](NC(=O)OC)C(C)C)[nH]3)ccc2-5)N(C(=O)[C@H](NC(=O)OC)c2ccccc2)C1 [Example LR-1, methyl{2-[2-{9-[2-(1-{2-[(methoxycarbonyl)amino]-3-methylbutanoyl}pyrrolidin-2-yl)-1H-imidazol-5-yl]-1,11-dihydroisochromeno[4′,3′:6,7]naphtho[1,2-d]imidazol-2-yl}-4-(methoxymethyl)pyrrolidin-1-yl]-2-oxo-1-phenylethyl}carbamate]	< 1	0.011	0.016	< 1	0.005	< 1	0.013	< 1	0.048	< 1	0.024	< 1	0.012	0.01	0.018	0.01	< 1	0.015	–
COC[C@H]1C[C@@H](c2nc3ccc4cc5c(cc4c3[nH]2)OCc2cc(-c3cnc([C@@H]4CC6C[C@H]6N4C(=O)[C@@H](NC(=O)OC)C(C)C)[nH]3)ccc2-5)N(C(=O)[C@H](NC(=O)OC)c2ccccc2)C1 (some centres unmarked) [Example LT, methyl{2-[2-{9-[2-(2-{2-[(methoxycarbonyl)amino]-3-methylbutanoyl}-2-azabicyclo[3.1.0]hex-3-yl)-1H-imidazol-5-yl]-1,11-dihydroisochromeno[4′,3′:6,7]naphtho[1,2-d]imidazol-2-yl}-4-(methoxymethyl)pyrrolidin-1-yl]-2-oxo-1-phenylethyl}carbamate]	< 1	0.009	0.016	< 1	0.004	< 1	0.012	< 1	0.047	< 1	0.039	< 1	0.009	0.015	0.01	0.009	< 1	0.01	–
COC(=O)N[C@H](C(=O)N1CCC[C@H]1c1nc2c(ccc3cc4c(cc32)OCc2cc(-c3cnc([C@@H]5CCCN5C(=O)[C@H](NC(=O)OC)c5ccccc5)[nH]3)ccc2-4)[nH]1)C(C)C [Example MD]	< 1	0.035	0.033	< 1	0.006	< 1	0.006	< 1	0.439	< 1	0.038	< 1	0.035	0.011	0.073	0.016	< 1	0.192	–
COC(=O)N[C@H](C(=O)N1[C@@H]2C[C@@H]2C[C@H]1c1ncc(-c2ccc3c(c2)COc2cc4c(ccc5nc([C@@H]6C[C@H](COC(F)F)CN6C(=O)[C@H](NC(=O)OC)c6ccccc6)[nH]c54)cc2-3)[nH]1)C(C)C [Example MW]	< 1	0.012	0.026	< 1	0.012	–	–	< 1	–	< 1	0.123	< 1	0.011	–	0.02	0.043	–	–	–
COC[C@H]1C[C@@H](c2nc3ccc4cc5c(cc4c3[nH]2)OCc2cc(-c3cnc([C@@H]4CCCN4C(=O)[C@@H](NC(=O)OC)[C@@H](C)OC)[nH]3)ccc2-5)N(C(=O)[C@H](NC(=O)OC)c2ccccc2)C1 [Example OT, Methyl {(1R)-2-[(2S,4S)-2-(9-{2-[(2S)-1-{(2S,3R)-3-methoxy-2-[(methoxycarbonyl)amino]butanoyl}pyrrolidin-2-yl]-1H-imidazol-5-yl}-1,11-dihydroisochromeno[4′,3′:6,7]naphtho[1,2-d]imidazol-2-yl)-4-(methoxymethyl)pyrrolidin-1-yl]-2-oxo-1-phenylethyl}carbamate]	< 1	0.011	0.02	< 1	0.005	< 1	0.024	< 1	–	< 1	–	–	–	–	0.013	0.012	< 1	0.041	–
COC[C@H]1C[C@@H](c2nc3ccc4cc5c(cc4c3[nH]2)OCc2cc(-c3cnc([C@@H]4C[C@H](C(F)(F)F)CN4C(=O)[C@@H](NC(=O)OC)C(C)C)[nH]3)ccc2-5)N(C(=O)[C@H](NC(=O)OC)c2ccccc2)C1 [Example PJ, methyl {(1R)-2-[(2S,4S)-2-(9-{2-[(2S,4S)-1-{(2S)-2-[(methoxycarbonyl)amino]-3-methylbutanoyl}-4-(trifluoromethyl)pyrrolidin-2-yl]-1H-imidazol-5-yl}-1,11-dihydroisochromeno[4′,3′:6,7]naphtho[1,2-d]imidazol-2-yl)-4-(methoxymethyl)pyrrolidin-1-yl]-2-oxo-1-phenylethyl}carbamate]	–	–	–	–	–	–	–	–	–	–	–	–	–	–	–	–	–	–	EC50 ([1]; read-out: 1a (nM) EC50): 0.068 nM; EC50 ([1]; read-out: 1a EC50 range): < 1 nM; EC50 ([2]; Hepatitis C virus, read-out: 1b (nM) EC50): 0.088 nM; EC50 ([3]; Hepatitis C virus, read-out: 2a JFH (nM) EC50): 0.058 nM; EC50 ([3]; Hepatitis C virus, read-out: 2a JFH EC50 range): < 1 nM; EC50 ([5]; Hepatitis C virus, read-out: 2a J6 EC50 range): < 1 nM; EC50 ([5]; Hepatitis C virus, read-out: 2a Jb (t) (nM) EC50): 0.136 nM; EC50 ([6]; Hepatitis C virus, read-out: 2b (s) (nM) EC50): 0.854 nM; EC50 ([6]; Hepatitis C virus, read-out: 2b (t) (nM) EC50): 0.335 nM; EC50 ([6]; Hepatitis C virus, read-out: 2b EC50 range): < 1 nM; EC50 ([7]; Hepatitis C virus, read-out: 4a (s) (nM) EC50): 0.056 nM; EC50 ([7]; Hepatitis C virus, read-out: 4a EC50 range): < 1 nM
COC(=O)N[C@H](C(=O)N1C[C@@H](COC(F)F)C[C@H]1c1nc2ccc3cc4c(cc3c2[nH]1)OCc1cc(-c2cnc(C3CCCN3C(=O)OC(C)(C)C)[nH]2)ccc1-4)C(C)C (stereo partly drawn) [Example PQ, tert-butyl 2-[5-(2-{(2S,4S)-4-[(difluoromethoxy)methyl]-1-[N-(methoxycarbonyl)-L-valyl]pyrrolidin-2-yl}-1,11-dihydroisochromeno[4′,3′:6,7]naphtho[1,2-d]imidazol-9-yl)-1H-imidazol-2-yl]pyrrolidine-1-carboxylate]	< 1	0.014	0.014	< 1	0.005	–	–	< 1	0.155	< 1	0.057	< 1	0.017	0.015	0.025	0.032	< 1	0.106	–
dimethyl (2S,2′S)-1,1′-((2S,2′S)-2,2′1-pyrrolidin-2-yl)-5H-naphtho[c,g]chromeno[8,9-d]imidazol-9-yl)-1H-imidazol-2-yl)pyrrolidin-1-yl))bis(3-methyl-1-oxobutane-2,1-diyl)dicarbamate [Example MC]	–	–	–	–	–	–	–	–	–	–	–	–	–	–	–	–	–	–	EC50 ([2]; read-out: 1b): 0.017 nM; EC50 ([3]; genotype 2a JFH, EC50 range, read-out: 2a JFH): < 1 nM; EC50 ([3]; genotype 2a JFH, read-out: 2a JFH): 0.004 nM; EC50 ([4]; genotype 3a, EC50 range, read-out: 3a): < 1 nM; EC50 ([4]; genotype 3a, read-out: 3a): 0.004 nM; EC50 ([5]; genotype 2a J6, EC50 range, transiently transfected cells (t), else stably replicating cells (s), read-out: 2a J6): 1 to 4.99 nM; EC50 ([5]; stably replicating cells (s), read-out: 2a J6 (s)): 3.52 nM; EC50 ([5]; transiently transfected cells (t), read-out: 2a Jb (t)): 1.16 nM; EC50 ([6]; genotype 2b, EC50 range, transiently transfected cells (t), else stably replicating cells (s), read-out: 2b): < 1 nM; EC50 ([6]; stably replicating cells (s), read-out: 2b (s)): 0.375 nM; EC50 ([6]; transiently transfected cells (t), read-out: 2b (t)): 0.162 nM; EC50 ([7]; genotype 4a, EC50 range, transiently transfected cells (t), else stably replicating cells (s), read-out: 4a): < 1 nM; EC50 ([7]; stably replicating cells (s), read-out: 4a (s)): 0.028 nM; EC50 ([7]; transiently transfected cells (t), read-out: 4a (t)): 0.008 nM; EC50 ([8]; 1a Q30R resistance mutant, EC50 range, read-out: 1a Q30R): < 1 nM; EC50 ([8]; 1a Q30R resistance mutant, read-out: 1a Q30R): 0.99 nM
